According to PubChem BioAssay (NCI):
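Each compound was tested at five concentrations against cells in 96-well plates for 48 hours. TGI denotes the concentration required for complete inhibition of growth.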

Legend:
Test in all cases: DTP human tumour cell line panel, 48 h
SNB-78 CNS = tested on: SNB-78 CNS
NCI-H23 lung = tested on: NCI-H23 lung
MALME-3M melanoma = tested on: MALME-3M melanoma
HT29 colon = tested on: HT29 colon
HCC-2998 colon = tested on: HCC-2998 colon
COLO 205 colon = tested on: COLO 205 colon
LXFL 529 NSCLC = tested on: LXFL 529 NSCLC
KM12 colon = tested on: KM12 colon
SF-295 CNS = tested on: SF-295 CNS
OVCAR-4 ovarian = tested on: OVCAR-4 ovarian
HCT-15 colon = tested on: HCT-15 colon
SF-539 CNS = tested on: SF-539 CNS
LOX IMVI melanoma = tested on: LOX IMVI melanoma
OVCAR-3 ovarian = tested on: OVCAR-3 ovarian
KM20L2 colon = tested on: KM20L2 colon
RPMI-8226 leukemia = tested on: RPMI-8226 leukemia
NCI-H226 lung = tested on: NCI-H226 lung
A498 renal = tested on: A498 renal
OVCAR-8 ovarian = tested on: OVCAR-8 ovarian
M19-MEL melanoma = tested on: M19-MEL melanoma
A549 NSCLC = tested on: A549 NSCLC
IGROV1 ovarian = tested on: IGROV1 ovarian
DMS 273 small cell lung = tested on: DMS 273 small cell lung
HOP-92 NSCLC = tested on: HOP-92 NSCLC
HOP-62 NSCLC = tested on: HOP-62 NSCLC
TK-10 renal = tested on: TK-10 renal
K-562 leukemia = tested on: K-562 leukemia
CCRF-CEM leukemia = tested on: CCRF-CEM leukemia
DMS 114 small cell lung = tested on: DMS 114 small cell lung
DLD-1 colon = tested on: DLD-1 colon
U251 CNS = tested on: U251 CNS
SW-620 colon = tested on: SW-620 colon
SN12C renal = tested on: SN12C renal
SK-OV-3 ovarian = tested on: SK-OV-3 ovarian
SR leukemia = tested on: SR leukemia
SK-MEL-5 melanoma = tested on: SK-MEL-5 melanoma
NCI-H522 lung = tested on: NCI-H522 lung
OVCAR-5 ovarian = tested on: OVCAR-5 ovarian
RXF 393 renal = tested on: RXF 393 renal
ACHN renal = tested on: ACHN renal
SF-268 CNS = tested on: SF-268 CNS
HL-60(TB) leukemia = tested on: HL-60(TB) leukemia
CAKI-1 renal = tested on: CAKI-1 renal
UACC-62 melanoma = tested on: UACC-62 melanoma
M14 melanoma = tested on: M14 melanoma
SNB-75 CNS = tested on: SNB-75 CNS
UACC-257 melanoma = tested on: UACC-257 melanoma
HCT-116 colon = tested on: HCT-116 colon
SK-MEL-2 melanoma = tested on: SK-MEL-2 melanoma
MOLT-4 leukemia = tested on: MOLT-4 leukemia
NCI-H460 lung = tested on: NCI-H460 lung
SK-MEL-28 melanoma = tested on: SK-MEL-28 melanoma
786-0 renal = tested on: 786-0 renal
SNB-19 CNS = tested on: SNB-19 CNS
UO-31 renal = tested on: UO-31 renal
XF 498 CNS = tested on: XF 498 CNS
EKVX NSCLC = tested on: EKVX NSCLC

COc1ccc(-c2cc(=O)c3c(OC)cccc3o2)c(OC)c1OC
TGI (SNB-78 CNS): > 100 µM
TGI (NCI-H23 lung): > 100 µM
TGI (MALME-3M melanoma): > 100 µM
TGI (HT29 colon): > 100 µM
TGI (HCC-2998 colon): > 100 µM
TGI (COLO 205 colon): > 100 µM
TGI (LXFL 529 NSCLC): > 100 µM
TGI (KM12 colon): > 100 µM
TGI (SF-295 CNS): > 100 µM
TGI (OVCAR-4 ovarian): > 100 µM
TGI (HCT-15 colon): > 100 µM
TGI (SF-539 CNS): > 100 µM
TGI (LOX IMVI melanoma): > 100 µM
TGI (OVCAR-3 ovarian): > 100 µM
TGI (KM20L2 colon): > 100 µM
TGI (RPMI-8226 leukemia): > 100 µM
TGI (NCI-H226 lung): > 100 µM
TGI (A498 renal): > 100 µM
TGI (OVCAR-8 ovarian): > 100 µM
TGI (M19-MEL melanoma): > 100 µM
TGI (A549 NSCLC): > 100 µM
TGI (IGROV1 ovarian): > 100 µM
TGI (DMS 273 small cell lung): > 100 µM
TGI (HOP-92 NSCLC): > 100 µM
TGI (HOP-62 NSCLC): > 100 µM
TGI (TK-10 renal): > 100 µM
TGI (K-562 leukemia): > 100 µM
TGI (CCRF-CEM leukemia): > 100 µM
TGI (DMS 114 small cell lung): > 100 µM
TGI (DLD-1 colon): > 100 µM
TGI (U251 CNS): > 100 µM
TGI (SW-620 colon): > 100 µM
TGI (SN12C renal): > 100 µM
TGI (SK-OV-3 ovarian): > 100 µM
TGI (SR leukemia): > 100 µM
TGI (SK-MEL-5 melanoma): > 100 µM
TGI (NCI-H522 lung): > 100 µM
TGI (OVCAR-5 ovarian): > 100 µM
TGI (RXF 393 renal): > 100 µM
TGI (ACHN renal): > 100 µM
TGI (SF-268 CNS): > 100 µM
TGI (HL-60(TB) leukemia): > 100 µM
TGI (CAKI-1 renal): > 100 µM
TGI (UACC-62 melanoma): > 100 µM
TGI (M14 melanoma): > 100 µM
TGI (SNB-75 CNS): 74.4 µM
TGI (UACC-257 melanoma): > 100 µM
TGI (HCT-116 colon): > 100 µM
TGI (SK-MEL-2 melanoma): > 100 µM
TGI (MOLT-4 leukemia): > 100 µM
TGI (NCI-H460 lung): > 100 µM
TGI (SK-MEL-28 melanoma): > 100 µM
TGI (786-0 renal): > 100 µM

O=C(Cn1ccnc1[N+](=O)[O-])c1ccccc1
TGI (NCI-H23 lung): > 100 µM
TGI (MALME-3M melanoma): > 100 µM
TGI (HT29 colon): > 100 µM
TGI (HCC-2998 colon): > 100 µM
TGI (COLO 205 colon): > 100 µM
TGI (LXFL 529 NSCLC): > 100 µM
TGI (KM12 colon): > 100 µM
TGI (SF-295 CNS): > 100 µM
TGI (OVCAR-4 ovarian): > 100 µM
TGI (HCT-15 colon): > 100 µM
TGI (SF-539 CNS): > 100 µM
TGI (LOX IMVI melanoma): > 100 µM
TGI (OVCAR-3 ovarian): > 100 µM
TGI (KM20L2 colon): > 100 µM
TGI (RPMI-8226 leukemia): > 100 µM
TGI (NCI-H226 lung): > 100 µM
TGI (A498 renal): > 100 µM
TGI (OVCAR-8 ovarian): > 100 µM
TGI (M19-MEL melanoma): > 100 µM
TGI (A549 NSCLC): > 100 µM
TGI (IGROV1 ovarian): > 100 µM
TGI (DMS 273 small cell lung): > 100 µM
TGI (HOP-92 NSCLC): > 100 µM
TGI (HOP-62 NSCLC): > 100 µM
TGI (SNB-19 CNS): > 100 µM
TGI (TK-10 renal): > 100 µM
TGI (K-562 leukemia): > 100 µM
TGI (CCRF-CEM leukemia): > 100 µM
TGI (DLD-1 colon): > 100 µM
TGI (SW-620 colon): > 100 µM
TGI (SN12C renal): > 100 µM
TGI (SK-OV-3 ovarian): > 100 µM
TGI (SK-MEL-5 melanoma): > 100 µM
TGI (NCI-H522 lung): > 100 µM
TGI (OVCAR-5 ovarian): > 100 µM
TGI (RXF 393 renal): > 100 µM
TGI (ACHN renal): > 100 µM
TGI (UO-31 renal): > 100 µM
TGI (SF-268 CNS): > 100 µM
TGI (HL-60(TB) leukemia): > 100 µM
TGI (CAKI-1 renal): > 100 µM
TGI (UACC-62 melanoma): > 100 µM
TGI (XF 498 CNS): > 100 µM
TGI (M14 melanoma): > 100 µM
TGI (SNB-75 CNS): > 100 µM
TGI (EKVX NSCLC): > 100 µM
TGI (UACC-257 melanoma): > 100 µM
TGI (SK-MEL-2 melanoma): > 100 µM
TGI (MOLT-4 leukemia): > 100 µM
TGI (NCI-H460 lung): > 100 µM
TGI (SK-MEL-28 melanoma): > 100 µM
TGI (786-0 renal): > 100 µM
